The source of these data is patent US8962608B2, “Cycloalkylnitrile pyrazole carboxamides as janus kinase inhibitors” (Merck Sharp & Dohme Corp., priority 2011, dated 2015).

Usually IC50 stands for the concentration that gives 50% inhibition.

Test [1] addresses JAK1 (recombinant purified GST-tagged catalytic domain) (Homo sapiens (Human), UniProt P23458). The test can be described thus: biochemical.
The target of test [2] is JAK2 (recombinant purified GST-tagged catalytic domain) (Homo sapiens (Human), UniProt O60674). Kind of test: biochemical.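 Further: biochemical JAK kinase assay with HTRF detection.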
JAK2 (recombinant purified GST-tagged catalytic domain), sequence (O60674 849-1124): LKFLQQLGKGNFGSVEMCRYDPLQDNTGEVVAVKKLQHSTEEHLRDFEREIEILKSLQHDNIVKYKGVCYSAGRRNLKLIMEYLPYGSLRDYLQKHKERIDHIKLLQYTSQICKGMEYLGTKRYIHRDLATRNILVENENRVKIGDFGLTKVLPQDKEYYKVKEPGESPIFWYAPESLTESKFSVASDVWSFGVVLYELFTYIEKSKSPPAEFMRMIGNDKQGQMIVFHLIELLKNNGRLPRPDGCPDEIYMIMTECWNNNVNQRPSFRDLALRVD

JAK1 (recombinant purified GST-tagged catalytic domain), sequence (P23458 875-1153): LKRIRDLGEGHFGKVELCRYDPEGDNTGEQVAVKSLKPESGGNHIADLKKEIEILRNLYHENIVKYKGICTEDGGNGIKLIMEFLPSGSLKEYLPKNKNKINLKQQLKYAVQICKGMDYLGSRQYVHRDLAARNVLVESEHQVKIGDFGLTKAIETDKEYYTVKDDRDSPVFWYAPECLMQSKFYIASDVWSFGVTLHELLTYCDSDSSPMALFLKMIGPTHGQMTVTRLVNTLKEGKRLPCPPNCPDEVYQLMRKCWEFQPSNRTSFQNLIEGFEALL

Consider `N#C[C@H]1C[C@@H](N2CC(F)C2)CC[C@@H]1n1cc(C(N)=O)c(Nc2ccc(S(=O)(=O)C(F)(F)F)cc2)n1` (single isomer, unassigned) [Example 28-113, 1-[(1S,2S,4S or 1R,2R,4R)-2-cyano-4-(3-fluoroazetidin-1-yl)cyclohexyl]-3-({4-[(trifluoro-methyl)sulfonyl]phenyl}amino)-1H-pyrazole-4-carboxamide], for which the half-inhibitory concentration (IC50) in test [1] was determined as 1 nM; in test [2], 13 nM.

Turning to `CN(CC(F)F)[C@H]1CC[C@H](n2cc(C(N)=O)c(Nc3ccc(S(=O)(=O)C(F)(F)F)cc3)n2)[C@@H](C#N)C1` (single isomer, unassigned) [Example 28-114, 1-{(1S,2S,4S or 1R,2R,4R)-2-cyano-4-[(2,2-difluoroethyl)(methyl)amino]cyclo-hexyl}-3-({4-[(trifluoro-methyl)sulfonyl]phenyl}amino)-1H-pyrazole-4-carboxamide], the IC50 was determined as 3 nM in test [1] and 29 nM in test [2].

Consider `C[C@H](N[C@H]1CC[C@H](n2cc(C(N)=O)c(Nc3ccc(Cl)cc3)n2)[C@@H](C#N)C1)C1CC1` (single isomer, unassigned) [Example 28-119, 3-[(4-chlorophenyl)amino]-1-[(1S,2S,4S or 1R,2R,4R)-2-cyano-4-{[(1R)-1-cyclopropylethyl]amino}cyclo-hexyl]-1H-pyrazole-4-carboxamide], for which the IC50 worked out at 1 nM in test [1] and 85 nM in test [2].

As for `CC1CN([C@H]2CC[C@H](n3cc(C(N)=O)c(Nc4ccc(C(F)(F)F)cc4)n3)[C@@H](C#N)C2)C1` (single isomer, unassigned) [Example 28-121, 1-[(1S,2S,4S or 1R,2R,4R)-2-cyano-4-(3-methylazetidin-1-yl)cyclohexyl]-3-{[4-(trifluoromethyl)phenyl]amino}-1H-pyrazole-4-carboxamide], the IC50 in test [1] is 1 nM; in test [2], 61 nM.

Take `N#C[C@H]1CC(NCC(F)F)CC[C@@H]1n1cc(C(N)=O)c(Nc2ccc(S(=O)(=O)C(F)F)cc2)n1` (single isomer, unassigned) [Example 28-122, 1-{(1S,2S or 1R,2R)-2-cyano-4-[(2,2-difluoroethyl)amino]cyclohexyl}-3-({4-[(difluoro-methyl)sulfonyl]phenyl}amino)-1H-pyrazole-4-carboxamide]: the values for the IC50 in test [1] and in test [2] were 0.9 nM and 6 nM, respectively.

For `N#C[C@H]1C[C@H](NCc2ccccc2)CC[C@@H]1n1cc(C(N)=O)c(Nc2ccnc(F)c2)n1` (single isomer, unassigned) [Example 28-123, 1-[(1S,2S,4R or 1R,2R,4S)-4-(benzylamino)-2-cyanocyclohexyl]-3-[(2-fluoropyridm-4-yl)amino]-1H-pyrazole-4-carboxamide], the IC50 in test [1] amounted to 2 nM; in test [2] it was 56 nM.

Turning to `CN(C)[C@@H]1CC[C@H](n2cc(C(N)=O)c(Nc3ccnc(F)c3)n2)[C@@H](C#N)C1` (single isomer, unassigned) [Example 28-127, 1-[(1S,2S,4R or 1R,2R,4S)-2-cyano-4-(dimethylamino)cyclohexyl]-3-[(2-fluoropyridin-4-yl)amino]-1H-pyrazole-4-carboxamide], the IC50 in test [1] turned out to be 12 nM; in test [2], 254 nM.

Regarding `CN(C)[C@H]1CC[C@H](n2cc(C(N)=O)c(Nc3ccnc(F)c3)n2)[C@@H](C#N)C1` (single isomer, unassigned) [Example 28-128, 1-[(1S,2S,4S or 1R,2R,4R)-2-cyano-4-(dimethylamino)cyclohexyl]-3-[(2-fluoropyridin-4-yl)amino]-1H-pyrazole-4-carboxamide], the 50% inhibitory concentration (IC50) in test [1] stood at 3 nM; in test [2], 110 nM.

For `N#C[C@H]1C[C@H](N2CCC2)CC[C@@H]1n1cc(C(N)=O)c(Nc2ccc(C(F)(F)F)cc2)n1` (single isomer, unassigned) [Example 28-131, 1-[(1S,2S,4R or 1R,2R,4S)-4-azetidin-1-yl-2-cyanocyclohexyl]-3-{[4-(trifluoromethyl)phenyl]amino}-1H-pyrazole-4-carboxamide], the IC50 in test [1] turned out to be 0.9 nM; in test [2], 51 nM.

In the case of `N#C[C@H]1C[C@@H](N2CC3(CCC3)C2)CC[C@@H]1n1cc(C(N)=O)c(Nc2ccnc(F)c2)n1` (single isomer, unassigned) [Example 28-133, 1-[(1S,2S,4S or 1R,2R,4R)-4-(2-azaspiro[3.3]hept-2-yl)-2-cyanocyclohexyl]-3-[(2-fluoropyridin-4-yl)amino]-1H-pyrazole-4-carboxamide], the half-maximal inhibitory concentration (IC50) in test [1] was 0.5 nM; in test [2] it was 36 nM.

As for `CN(C)[C@H]1CC[C@H](n2cc(C(N)=O)c(Nc3ccccc3)n2)[C@@H](C#N)C1` (single isomer, unassigned) [Example 28-135, 1-[(1S,2S,4S or 1R,2R,4R)-2-cyano-4-(dimethylamino)cyclohexyl]-3-(phenylamino)-1H-pyrazole-4-carboxamide], the values for the IC50 in test [1] and in test [2] were 0.65 nM and 32 nM, respectively.

Turning to `CC1(C)CN([C@H]2CC[C@H](n3cc(C(N)=O)c(Nc4ccccc4)n3)[C@@H](C#N)C2)C1` (single isomer, unassigned) [Example 28-138, 1-[(1S,2S,4S or 1R,2R,4R)-2-cyano-4-(3,3-dimethylazetidin-1-yl)cyclohexyl]-3-(phenylamino)-1H-pyrazole-4-carboxamide], the IC50 turned out to be 0.9 nM in test [1] and 40 nM in test [2].

For the compound `CC1CN([C@H]2CC[C@H](n3cc(C(N)=O)c(Nc4ccccc4)n3)[C@@H](C#N)C2)C1` (single isomer, unassigned) [Example 28-141, 1-[(1S,2S,4S or 1R,2R,4R)-2-cyano-4-(3-methylazetidin-1-yl)cyclohexyl]-3-(phenylamino)-1H-pyrazole-4-carboxamide], the 50% inhibitory concentration (IC50) was found to be 1 nM in test [1] and 44 nM in test [2].

For `N#C[C@H]1C[C@H](N2CC3(CCC3)C2)CC[C@@H]1n1cc(C(N)=O)c(Nc2ccnc(F)c2)n1` (single isomer, unassigned) [Example 28-143, 1-[(1S,2S,4R or 1R,2R,4S)-4-(2-azaspiro[3.3]hept-2-yl)-2-cyanocyclohexyl]-3-[(2-fluoropyridin-4-yl)amino]-1H-pyrazole-4-carboxamide], the figures for the IC50 in test [1] and in test [2] were 1 nM and 122 nM, respectively.

`N#C[C@H]1C[C@@H](N2CCC23COC3)CC[C@@H]1n1cc(C(N)=O)c(Nc2ccc(Cl)cc2)n1` (single isomer, unassigned) [Example 28-146, 3-[(4-chlorophenyl)amino]-1-[(1S,2S,4S or 1R,2R,4R)-2-cyano-4-(6-oxa-1-azaspiro[3.3]hept-1-yl)cyclohexyl]-1H-pyrazole-4-carboxamide]: the IC50 in test [1] was determined as 1 nM; in test [2] it was 4 nM.

For the compound `COC1CN(C2CC[C@H](n3cc(C(N)=O)c(Nc4ccc(S(=O)(=O)C(F)(F)F)cc4)n3)[C@@H](C#N)C2)C1` (single isomer, unassigned) [Example 28-147, 1-[(1S,2S or 1R,2R)-2-cyano-4-(3-methoxyazetidin-1-yl)cyclohexyl]-3-({4-[(trifluoro-methyl)sulfonyl]phenyl}amino)-1H-pyrazole-4-carboxamide], the IC50 in test [1] was 0.45 nM; in test [2], 5 nM.

With `CS(=O)(=O)CCNC1CC[C@H](n2cc(C(N)=O)c(Nc3ccc(S(=O)(=O)C(F)(F)F)cc3)n2)[C@@H](C#N)C1` (single isomer, unassigned) [Example 28-148, 1-[(1S,2S or 1R,2R)-2-cyano-4-{[2-(methylsulfonyl)eth-yl]amino}cyclohexyl]-3-({4-[(trifluoromethyl)sulfon-yl]phenyl}amino)-1H-pyrazole-4-carboxamide], the IC50 in test [1] was 0.35 nM; in test [2], 4 nM.

`COCCN(C)[C@H]1CC[C@H](n2cc(C(N)=O)c(Nc3ccc(S(=O)(=O)C(F)(F)F)cc3)n2)[C@@H](C#N)C1` (single isomer, unassigned) [Example 28-149, 1-{(1S,2S,4S or 1R,2R,4R)-2-cyano-4-[(2-methoxy-ethyl)(methyl)amino]cyclohexyl}-3-({4-[(trifluoromethyl)sulfonyl]phen-yl}amino)-1H-pyrazole-4-carboxamide]: the results for the IC50 in test [1] and in test [2] were 0.6 nM and 17 nM, respectively.

Turning to `N#C[C@H]1CC(NCC2CCS(=O)(=O)C2)CC[C@@H]1n1cc(C(N)=O)c(Nc2ccc(S(=O)(=O)C(F)(F)F)cc2)n1` (single isomer, unassigned) [Example 28-152, 1-[(1S,2S or 1R,2R)-2-cyano-4-{[(1,1-dioxidotetrahydrothiophen-3-yl)methyl]amino}cyclohexyl]-3-({4-[(trifluoro-methyl)sulfonyl]phenyl}amino)-1H-pyrazole-4-carboxamide], the half-maximal inhibitory concentration (IC50) in test [1] amounted to 0.4 nM; in test [2], 10 nM.

With `N#C[C@H]1CC(NC2CCS(=O)(=O)C2)CC[C@@H]1n1cc(C(N)=O)c(Nc2ccc(S(=O)(=O)C(F)(F)F)cc2)n1` (single isomer, unassigned) [Example 28-153, 1-{(1S,2S or 1R,2R)-2-cyano-4-[(1,1-dioxidotetrahydrothiophen-3-yl)amino]cyclohexyl}-3-({4-[(trifluoromethyl)sulfonyl]phen-yl}amino)-1H-pyrazole-4-carboxamide], the IC50 came to 0.4 nM in test [1] and 7 nM in test [2].

In the case of `CN(C)S(=O)(=O)CCNC1CC[C@H](n2cc(C(N)=O)c(Nc3ccc(S(=O)(=O)C(F)(F)F)cc3)n2)[C@@H](C#N)C1` (single isomer, unassigned) [Example 28-154, 1-[(1S,2S or 1R,2R)-2-cyano-4-{[2-(dimethylsulfamoyl)ethyl]a-mino}cyclohexyl]-3-({4-[(trifluoromethyl)sulfonyl]phen-yl}amino)-1H-pyrazole-4-carboxamide], the half-maximal inhibitory concentration (IC50) in test [1] is 1 nM; in test [2] it was 13 nM.

With `N#C[C@H]1CC(N2CC[C@H](F)C2)CC[C@@H]1n1cc(C(N)=O)c(Nc2ccc(S(=O)(=O)C(F)(F)F)cc2)n1` (single isomer, unassigned) [Example 28-158, 1-{(1S,2S or 1R,2R)-2-cyano-4-[(3S)-3-fluoropyrrolidin-1-yl]cyclohexyl}-3-({4-[(trifluoro-methyl)sulfonyl]phenyl}amino)-1H-pyrazole-4-carboxamide], the results for the 50% inhibitory concentration (IC50) in test [1] and in test [2] were 1 nM and 17 nM, respectively.
